Laboratory results: patent US20110207829A1, “CONTROL OF TERMITES, FIRE ANTS AND CARPENTER ANTS” (Bedoukian Research, Inc, priority 2008, published 2011)

How the values were obtained:
[1] = system: Formosan subterranean termites; assay: Vapor Toxicity Under Subterranean Conditions (soil and wood); format: in vivo, Coptotermes formosanus; conditions: for termites killed (vapor toxicity under subterranean conditions): 25 mg
Experimental: (§1) Formosan subterranean termites were collected from bucket traps placed in City Park,
(§2) New Orleans, La. Altogether five colonies designated 1314, 1559, 1732, 1743 and 1756 were used in the tests. After collection, the termites (primarily workers and soldiers) were transferred to plastic boxes with moist spruce slats. The boxes were stored in an incubator maintained at 28° C., 65% RH, and constant darkness. Termites were used within one month of their collection.
Vapor Toxicity Under Subterranean Conditions. This test was also conducted in the
Qorpak™ bottles. A 35 by 40 by 7 mm piece of moist spruce was placed at the bottom of the bottle and covered with 40 g fine-sifted black soil. One hundred workers were released into each bottle and allowed to tunnel under the soil and into the wood. After 3 days, a test chemical was applied to a filter paper and suspended from the cap-liner. The chemicals were tested at a rate of 25 mg. […] The test was conducted with termites from 3 colonies and replicated 3 times.

[2] = system: Formosan subterranean termites; assay: Assay for Contact Toxicity (treated filter paper in Petri dishes); format: in vivo, Coptotermes formosanus; conditions: 1 day; rate of 0.5 mg/liter
[3] = system: Formosan subterranean termites; assay: Assay for Vapor Toxicity (1 liter bottles); format: in vivo, Coptotermes formosanus
Experimental: as §1, §2
Assay for Vapor Toxicity. This test was conducted in 960 ml (approximately 1 liter) wide-mouth clear Qorpak™ (All-Pak, Inc.) bottles with PTFE lined caps. A 60 mm diameter glass Petri dish with a moist filter paper and 50 termite workers was placed at the bottom of each bottle. The test chemical was applied to a 1 cm diameter filter paper and suspended with an insect pin from the cap-liner. Each chemical was initially tested at 1 mg then at 0.1 and 0.5 mg. Since 0.1 and 0.5 mg doses caused very low and 100% mortality respectively, the final test was carried out at 0.25 mg. Each chemical was tested with different termite colonies and replicated three times. The bottles were placed in the incubator. Mortality was recorded after 1, 2 and 3 days by quickly taking the glass Petri dish with the termites out of the bottle (with a pair of long forceps) and replacing it after removing the dead workers.

carpenter ants = assay: Carpenter ant test in sealed jars; format: in vivo; conditions: within 24 hours; one drop (approximately 25 to 30 mg) on filter paper in sealed jar
Experimental: One drop (approximately 25 to 30 mg) of test compound (l-linaloo , l-carvone, and Styralyl Alcohol,) was applied to a filter paper within sealed jars (16 oz glass jar, 3½ inch diameter, 3⅞ inch high with plastic lids) containing ten carpenter ants per replicate with there being five replicates. Five negative controls with no test compounds were also run. The l-linalool, l-carvone, and styralyl alcohol each provided 100% mortality to the carpenter ants within 24 hours while the control produced 6% mortality over the same 24 hour period.

Molecule: C=C(C)C1CC=C(C)C(O)C1 (mixture of isomers) [carveol, reference compound]
- effectiveness against termites in soil and wood [1]: totally ineffective

Molecule: CC(O)c1ccccc1 (stereo not drawn) [Styralyl Alcohol, alpha-methyl benzyl alcohol]
- termites killed (contact toxicity) [2]: 98%
- termites killed (vapor toxicity under subterranean conditions) ([1]; time not given): 11%
- termites killed (vapor toxicity) ([3]; 2 days, 0.25 mg/liter volume): 100%
- mortality to carpenter ants (carpenter ants): 100%

Molecule: CC(C)=CCCC(C)CC=O (stereo not drawn) [citronellal, reference compound]
- effectiveness against termites in soil and wood [1]: totally ineffective

Molecule: CC(C)=CCC/C(C)=C/CO [geraniol, reference compound]
- effectiveness against termites in soil and wood [1]: totally ineffective

Molecule: C=C[C@](C)(O)CCC=C(C)C [l-linalool]
- termites killed (vapor toxicity under subterranean conditions) ([1]; 2 days): 69%
- termites killed (vapor toxicity) ([3]; 1 day, 0.5 mg): 100%
- termites killed (vapor toxicity) ([3]; 3 days, 0.25 mg): 70%
- mortality to carpenter ants (carpenter ants): 100%

Molecule: Cc1ccc(C(C)C)cc1 [p-cymene, reference compound]
- effectiveness against termites in soil and wood [1]: totally ineffective

Molecule: CCC(C)(O)CCCC(C)C (stereo not drawn) [tetrahydrolinalool]
- termites killed (vapor toxicity under subterranean conditions) ([1]; 2 days): 53%

Molecule: l-carvone
- termites killed (vapor toxicity under subterranean conditions) ([1]; 2 days): 57%
- termites killed (vapor toxicity under subterranean conditions) ([1]; one day): 37%
- termites killed (vapor toxicity) ([3]; 1 day, 0.5 mg): 100%
- termites killed (vapor toxicity) ([3]; 3 days, 0.25 mg): 95%
- mortality to carpenter ants (carpenter ants): 100%
